Legend:
HeLa KRas G12C cells = assay: Cellular growth inhibition assay (CTG), HeLa KRas G12C cells; type: cell-based; details: Homo sapiens, CellTiter-Glo 2.0, day-5
Description: Cells were seeded in Poly-D-lysine-treated 384-well white plates, with 25 μL cell suspension at 250 cells/well for continuous treatments, and 1000 cells/well for washout treatments. Plates were spun at 300×g for 3 minutes, and cells were cultured at 37° C. with 5% CO2 in a humidified tissue culture incubator.
After 24 hours, the test compounds were diluted with cell culture medium in 96 deep well plates. DMSO was used as a negative control. A 25 μL aliquot of compound-containing medium was added in each well, at a final top concentration of 10 μM or 30 μM test compound, with 3-fold dilutions. For washout assays, after 4 hours, cell medium with compound was removed, and the cells were washed with 75p L fresh medium. Plates were then spun at 300×g for 3 minutes and replaced with 50 μL fresh medium in each well. Plates were then spun at 300×g for 3 minutes again and cultured at 37° C. with 5% CO2.
At day-0 and day-5 of compound treatments, cell viability was quantified with CellTiter-Glo 2.0 (Promega). After equilibrating cell plates at room temperature for 30 minutes, 25 μL CellTiter-Glo 2.0 reagent was dispensed into each well (on top of 50 μL of cell culture). Plates were mixed on a shaker for 2 minutes at 500 rpm, followed by a 10-minute incubation at room temperature. Luminescence readings were measured with an EnVision Plate Reader. Data was normalized to DMSO treated day-0 cell wells. A four-parameter non-linear regression curve fit was applied to dose-response data in Prism to determine the half maximal growth inhibitory concentration (GI50) of each compound.

GSPT1 = molecular target: T1, GSPT1 (Homo sapiens, UniProt P15170+Q96SW2); assay: GSPT1 HiBit degradation assay; type: cell-based; details: HEK293 LgBiT cells expressing GSPT1_HiBiT, luminescence after 6 hours
T1 construct: host or cells: HEK293 LgBiT cell line
Procedure, shortened: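 Degradation readout is luminescence at 6 h, with DC50 taken as the concentration giving 50% GSPT1 loss. Compound titrations were added together with endurazine (0.5× final) to HEK293 LgBiT/GSPT1-HiBiT cells seeded the day before and kept at 37 °C.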

T1 sequence (P15170 whole entry): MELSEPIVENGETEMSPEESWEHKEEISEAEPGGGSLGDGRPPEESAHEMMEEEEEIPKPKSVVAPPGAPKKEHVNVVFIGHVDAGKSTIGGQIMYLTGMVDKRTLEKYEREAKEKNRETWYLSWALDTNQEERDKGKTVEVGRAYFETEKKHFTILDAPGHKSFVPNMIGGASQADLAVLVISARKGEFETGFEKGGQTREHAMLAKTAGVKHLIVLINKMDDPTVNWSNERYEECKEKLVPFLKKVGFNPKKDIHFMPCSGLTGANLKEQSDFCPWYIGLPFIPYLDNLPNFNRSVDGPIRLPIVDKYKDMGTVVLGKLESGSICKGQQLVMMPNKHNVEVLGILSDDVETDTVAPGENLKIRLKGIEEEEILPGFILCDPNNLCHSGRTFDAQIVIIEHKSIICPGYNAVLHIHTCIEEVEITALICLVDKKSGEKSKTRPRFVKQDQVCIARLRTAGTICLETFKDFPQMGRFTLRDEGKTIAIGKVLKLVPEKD
T1 sequence (Q96SW2 whole entry): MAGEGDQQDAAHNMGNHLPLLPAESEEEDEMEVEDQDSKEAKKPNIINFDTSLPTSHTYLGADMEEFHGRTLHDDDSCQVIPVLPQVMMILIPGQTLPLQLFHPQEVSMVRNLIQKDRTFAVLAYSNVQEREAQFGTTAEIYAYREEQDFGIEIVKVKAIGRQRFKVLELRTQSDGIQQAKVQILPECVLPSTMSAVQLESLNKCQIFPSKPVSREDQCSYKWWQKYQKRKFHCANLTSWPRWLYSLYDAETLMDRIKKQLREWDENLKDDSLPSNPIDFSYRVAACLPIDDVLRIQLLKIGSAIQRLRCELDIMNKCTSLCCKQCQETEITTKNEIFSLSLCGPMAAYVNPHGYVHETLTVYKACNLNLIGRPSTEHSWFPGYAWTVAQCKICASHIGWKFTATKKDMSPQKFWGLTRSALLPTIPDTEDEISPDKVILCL
T1 sequence (Q16531 whole entry partner): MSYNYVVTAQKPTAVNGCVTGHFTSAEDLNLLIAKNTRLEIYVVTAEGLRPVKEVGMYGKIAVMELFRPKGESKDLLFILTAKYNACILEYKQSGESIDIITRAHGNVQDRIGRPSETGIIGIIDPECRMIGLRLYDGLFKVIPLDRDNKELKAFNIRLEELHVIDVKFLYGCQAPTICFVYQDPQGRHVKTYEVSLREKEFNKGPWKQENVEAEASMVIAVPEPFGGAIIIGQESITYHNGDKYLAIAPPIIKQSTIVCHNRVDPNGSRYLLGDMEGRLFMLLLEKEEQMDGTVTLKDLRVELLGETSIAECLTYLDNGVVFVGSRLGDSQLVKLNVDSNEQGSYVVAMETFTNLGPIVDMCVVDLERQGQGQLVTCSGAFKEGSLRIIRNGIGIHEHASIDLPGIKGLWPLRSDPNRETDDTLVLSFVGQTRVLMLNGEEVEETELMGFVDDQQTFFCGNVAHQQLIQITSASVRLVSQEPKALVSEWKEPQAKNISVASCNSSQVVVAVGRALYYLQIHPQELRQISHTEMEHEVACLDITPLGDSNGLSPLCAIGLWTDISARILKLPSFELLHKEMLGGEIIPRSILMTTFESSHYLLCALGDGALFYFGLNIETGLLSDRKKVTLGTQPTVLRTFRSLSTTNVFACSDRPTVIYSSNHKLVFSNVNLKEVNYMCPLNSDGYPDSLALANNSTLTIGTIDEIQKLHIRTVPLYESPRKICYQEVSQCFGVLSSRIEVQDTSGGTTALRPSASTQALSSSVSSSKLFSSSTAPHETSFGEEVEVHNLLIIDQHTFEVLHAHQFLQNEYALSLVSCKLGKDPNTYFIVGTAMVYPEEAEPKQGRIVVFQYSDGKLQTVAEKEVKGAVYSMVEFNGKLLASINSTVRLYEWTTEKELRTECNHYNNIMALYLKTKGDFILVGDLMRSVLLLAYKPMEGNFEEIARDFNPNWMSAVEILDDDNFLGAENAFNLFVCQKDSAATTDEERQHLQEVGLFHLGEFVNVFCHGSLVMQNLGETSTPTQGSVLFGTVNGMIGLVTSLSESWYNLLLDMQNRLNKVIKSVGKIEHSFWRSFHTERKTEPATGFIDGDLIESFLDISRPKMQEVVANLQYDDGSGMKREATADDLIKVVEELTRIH

| SMILES | GI50 (HeLa KRas G12C cells) | DC50 (GSPT1; Table 3A) | DC50 (GSPT1; Table 3) |
| --- | --- | --- | --- |
| C=C(F)C(=O)N1CCN(c2nc(OC[C@@H]3CCCN3CCCOCCOCCOCCOCCOCCCCCc3cccc(NC(=O)NCc4ccc5c(c4)CN(C4CCC(=O)NC4=O)C5=O)n3)nc3c2CCN(c2cccc4cccc(Cl)c24)C3)C[C@@H]1CC#N (stereo partly drawn) [Compound I-152] | 3 to 10 µM | > 10 µM |  |
| C=C(F)C(=O)N1CCN(c2nc(OC[C@@H]3CCCN3CCCOCCOCCOCCOCCOCCOCCOCCOCCOCCOCCOCCCCCc3cccc(NC(=O)NCc4ccc5c(c4)CN(C4CCC(=O)NC4=O)C5=O)n3)nc3c2CCN(c2cccc4cccc(Cl)c24)C3)C[C@@H]1CC#N (stereo partly drawn) [Compound I-148] | 3 to 10 µM | 0.25 to 5 µM |  |
| C=C(F)C(=O)N1CCN(c2nc(OC[C@@H]3CCCN3CCCCCCCCc3cccc4c3CN(C3CCC(=O)NC3=O)C4=O)nc3c2CCN(c2cccc4cccc(Cl)c24)C3)C[C@@H]1CC#N (stereo partly drawn) [Compound I-4, 2-[(2S)-4-[7-(8-chloro-1-naphthyl)-2-[[(2S)-1-[8-[2-(2,6-dioxo-3-piperidyl)-1-oxo-isoindolin-4-yl]octyl]pyrrolidin-2-yl]methoxy]-6,8-dihydro-5H-pyrido[3,4-d]pyrimidin-4-yl]-1-(2-fluoroprop-2-enoyl)piperazin-2-yl]acetonitrile] | 3 to 10 µM |  | > 10 µM |
| C=CC(=O)N1CCN(c2nc(NCCC(=O)N(C)CCOCCOCCOCCOCCOCCOCCc3cc(Cl)cc(NC(=O)NCc4ccc5c(c4)CN(C4CCC(=O)NC4=O)C5=O)c3)nc3c(F)c(-c4cc(O)cc5ccccc45)c(Cl)cc23)CC1 (stereo not drawn) [Compound I-17] | > 10 µM |  | > 10 µM |
| C=CC(=O)N1CCN(c2nc(NCCC(=O)N(C)CCOCCOCCOCCOCCOCCOCCOCCOCCc3cc(Cl)cc(NC(=O)NCc4ccc5c(c4)CN(C4CCC(=O)NC4=O)C5=O)c3)nc3c(F)c(-c4cc(O)cc5ccccc45)c(Cl)cc23)CC1 (stereo not drawn) [Compound I-18, N-[2-[2-[2-[2-[2-[2-[2-[2-[2-[3-chloro-5-[[2-(2,6-dioxo-3-piperidyl)-1-oxo-isoindolin-5-yl]methylcarbamoylamino]phenyl]ethoxy]ethoxy]ethoxy]ethoxy]ethoxy]ethoxy]ethoxy]ethoxy]ethyl]-3-[[6-chloro-8-fluoro-7-(3-hydroxy-1-naphthyl)-4-(4-prop-2-enoylpiperazin-1-yl)quinazolin-2-yl]amino]-N-methyl-propanamide] | > 10 µM |  | > 10 µM |
| C=C(F)C(=O)N1CCN(c2nc(OC[C@@H]3CCCN3CCOCCOCCOCCOCCOCCOCCOCCOCCOCCOCCOCCOCCOCCOCCCCCCCCc3cc(Cl)cc(NC(=O)NCc4ccc5c(c4)CN(C4CCC(=O)NC4=O)C5=O)c3)nc3c2CCN(c2cccc4cccc(Cl)c24)C3)C[C@@H]1CC#N (stereo partly drawn) [Compound I-47] | < 1 µM |  | < 0.25 µM |
| C=C(F)C(=O)N1CCN(c2nc(OC[C@@H]3CCCN3CCCCCCCCNc3cccc4c3CN(C3CCC(=O)NC3=O)C4=O)nc3c2CCN(c2cccc4cccc(Cl)c24)C3)C[C@@H]1CC#N (stereo partly drawn) [Compound I-3, 2-((2S)-4-(7-(8-chloronaphthalen-1-yl)-2-(((2S)-1-(8-((2-(2,6-dioxopiperidin-3-yl)-1-oxoisoindolin-4-yl)amino)octyl)pyrrolidin-2-yl)methoxy)-5,6,7,8-tetrahydropyrido[3,4-d]pyrimidin-4-yl)-1-(2-fluoroacryloyl)piperazin-2-yl)acetonitrile] | 3 to 10 µM |  | > 10 µM |
| C=CC(=O)N1CCN(c2nc(NCCOCCOCCOCCOCCOCCOCCOCCOCCc3cc(Cl)cc(NC(=O)NCc4ccc5c(c4)CN(C4CCC(=O)NC4=O)C5=O)c3)nc3c(F)c(-c4cc(O)cc5ccccc45)c(Cl)cc23)CC1 (stereo not drawn) [Compound I-15, 1-[3-chloro-5-[2-[2-[2-[2-[2-[2-[2-[2-[2-[[6-chloro-8-fluoro-7-(3-hydroxy-1-naphthyl)-4-(4-prop-2-enoylpiperazin-1-yl)quinazolin-2-yl]amino]ethoxy]ethoxy]ethoxy]ethoxy]ethoxy]ethoxy]ethoxy]ethoxy]ethyl]phenyl]-3-[[2-(2,6-dioxo-3-piperidyl)-1-oxo-isoindolin-5-yl]methyl]urea] | > 10 µM |  | > 10 µM |
| C=C(F)C(=O)N1CCN(c2nc(OC[C@@H]3CCCN3CCCOCCOCCOCCOCCOCCOCCOCCOCCOCCOCCOCCCCCc3ccc(Cl)cc3NC(=O)NCc3ccc4c(c3)CN(C3CCC(=O)NC3=O)C4=O)nc3c2CCN(c2cccc4cccc(Cl)c24)C3)C[C@@H]1CC#N (stereo partly drawn) [Compound I-138] | 3 to 10 µM | 0.25 to 5 µM |  |

Second part, the compound after the results:

| GI50 (HeLa KRas G12C cells) | DC50 (GSPT1; Table 3A) | DC50 (GSPT1; Table 3) | SMILES |
| --- | --- | --- | --- |
| < 1 µM |  | 0.25 to 5 µM | C=C(F)C(=O)N1CCN(c2nc(OC[C@@H]3CCCN3CCOCCOCCOCCOCCOCCOCCCCCCCCCCCCCCc3cc(Cl)cc(NC(=O)NCc4ccc5c(c4)CN(C4CCC(=O)NC4=O)C5=O)c3)nc3c2CCN(c2cccc4cccc(Cl)c24)C3)C[C@@H]1CC#N (stereo partly drawn) [Compound I-50] |
| 3 to 10 µM |  | 5 to 10 µM | C=C(F)C(=O)N1CCN(c2nc(OC[C@@H]3CCCN3CCOCCOCCOCCOCCOCCOCCOCCOCCOCCOCCOc3cc(Cl)cc(NC(=O)NCc4ccc5c(c4)CN(C4CCC(=O)NC4=O)C5=O)c3)nc3c2CCN(c2cccc4cccc(Cl)c24)C3)C[C@@H]1CC#N (stereo partly drawn) [Compound I-10, 1-[3-chloro-5-[2-[2-[2-[2-[2-[2-[2-[2-[2-[2-[2-[(2S)-2-[[7-(8-chloro-1-naphthyl)-4-[(3S)-3-(cyanomethyl)-4-(2-fluoroprop-2-enoyl)piperazin-1-yl]-6,8-dihydro-5H-pyrido[3,4-d]pyrimidin-2-yl]oxymethyl]pyrrolidin-1-yl]ethoxy]ethoxy]ethoxy]ethoxy]ethoxy]ethoxy]ethoxy]ethoxy]ethoxy]ethoxy]ethoxy]phenyl]-3-[[2-(2,6-dioxo-3-piperidyl)-1-oxo-isoindolin-5-yl]methyl]urea] |
| < 1 µM |  | 0.25 to 5 µM | C=C(F)C(=O)N1CCN(c2nc(OC[C@@H]3CCCN3CCOCCOCCOCCOCCOCCOCCOCCOCCCCCCCCCCCCCCc3cc(Cl)cc(NC(=O)NCc4ccc5c(c4)CN(C4CCC(=O)NC4=O)C5=O)c3)nc3c2CCN(c2cccc4cccc(Cl)c24)C3)C[C@@H]1CC#N (stereo partly drawn) [Compound I-51] |
| < 1 µM |  | < 0.25 µM | C=C(F)C(=O)N1CCN(c2nc(OC[C@@H]3CCCN3CCOCCOCCOCCOCCOCCOCCOCCOCCCCCCCCc3cc(Cl)cc(NC(=O)NCc4ccc5c(c4)CN(C4CCC(=O)NC4=O)C5=O)c3)nc3c2CCN(c2cccc4cccc(Cl)c24)C3)C[C@@H]1CC#N (stereo partly drawn) [Compound I-38] |
| < 1 µM |  | 0.25 to 5 µM | C=C(F)C(=O)N1CCN(c2nc(OC[C@@H]3CCCN3CCOCCOCCOCCOCCOCCOCCOCCOCCOCCOCCCCCCCCCCCCCCc3cc(Cl)cc(NC(=O)NCc4ccc5c(c4)CN(C4CCC(=O)NC4=O)C5=O)c3)nc3c2CCN(c2cccc4cccc(Cl)c24)C3)C[C@@H]1CC#N (stereo partly drawn) [Compound I-52] |
| > 10 µM |  | > 10 µM | C=C(F)C(=O)N1CCN(c2nc(OC[C@@H]3CCCN3CCOCCOCCOCCOCCOCCOCCOCCOCCOc3cc(Cl)cc(NC(=O)NCc4ccc5c(c4)CN(C4CCC(=O)NC4=O)C5=O)c3)nc3c2CCN(c2cccc4cccc(Cl)c24)C3)C[C@@H]1CC#N (stereo partly drawn) [Compound I-9, 1-[3-chloro-5-[2-[2-[2-[2-[2-[2-[2-[2-[2-[(2S)-2-[[7-(8-chloro-1-naphthyl)-4-[(3S)-3-(cyanomethyl)-4-(2-fluoroprop-2-enoyl)piperazin-1-yl]-6,8-dihydro-5H-pyrido[3,4-d]pyrimidin-2-yl]oxymethyl]pyrrolidin-1-yl]ethoxy]ethoxy]ethoxy]ethoxy]ethoxy]ethoxy]ethoxy]ethoxy]ethoxy]phenyl]-3-[[2-(2,6-dioxo-3-piperidyl)-1-oxo-isoindolin-5-yl]methyl]urea] |
| 3 to 10 µM |  | 5 to 10 µM | C=C(F)C(=O)N1CCN(c2nc(OC[C@@H]3CCCN3CCOCCOCCOCCOCCOCCOCCOCCOCCOCCOCCc3cc(Cl)cc(NC(=O)NCc4ccc5c(c4)CN(C4CCC(=O)NC4=O)C5=O)c3)nc3c2CCN(c2cccc4cccc(Cl)c24)C3)C[C@@H]1CC#N (stereo partly drawn) [Compound I-12, 1-[3-chloro-5-[2-[2-[2-[2-[2-[2-[2-[2-[2-[2-[2-[(2S)-2-[[7-(8-chloro-1-naphthyl)-4-[(3S)-3-(cyanomethyl)-4-(2-fluoroprop-2-enoyl)piperazin-1-yl]-6,8-dihydro-5H-pyrido[3,4-d]pyrimidin-2-yl]oxymethyl]pyrrolidin-1-yl]ethoxy]ethoxy]ethoxy]ethoxy]ethoxy]ethoxy]ethoxy]ethoxy]ethoxy]ethoxy]ethyl]phenyl]-3-[[2-(2,6-dioxo-3-piperidyl)-1-oxo-isoindolin-5-yl]methyl]urea] |
| > 10 µM |  | 0.25 to 5 µM | C=C(F)C(=O)N1CCN(c2nc(OC[C@@H]3CCCN3CCOCCOCCOCCOCCOCCOCCOCCOCCOCCOCCOCCOCCc3cc(Cl)cc(NC(=O)NCc4ccc5c(c4)CN(C4CCC(=O)NC4=O)C5=O)c3)nc3c2CCN(c2cccc4cccc(Cl)c24)C3)C[C@@H]1CC#N (stereo partly drawn) [Compound I-37] |
| < 1 µM |  | 0.25 to 5 µM | C=C(F)C(=O)N1CCN(c2nc(OC[C@@H]3CCCN3CCOCCOCCOCCOCCOCCCCCc3cc(Cl)cc(NC(=O)NCc4ccc5c(c4)CN(C4CCC(=O)NC4=O)C5=O)c3)nc3c2CCN(c2cccc4cccc(Cl)c24)C3)C[C@@H]1CC#N (stereo partly drawn) [Compound I-54] |
